Source: patent US20240101563A1, “NOVEL COMPOUNDS” (AC Immune SA, priority 2022, published 2024)

How the values were obtained:
[1] = system: NLRP3 inflammasome pathway; assay: NLRP3 inflammasome pathway activation assay, MSU stimulation, IL-1β HTRF; type: cell-based; settings: Homo sapiens, 3 h, MSU 200 μg/mL for 3 h, IL-1β release, read-out: IC50 Human monocyte-like cells MSU
In short: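 Human monocyte-like cells differentiated overnight with 10 ng/mL PMA, primed 3 h with 10 ng/mL LPS, given compound ([…]) 30 min before 3 h stimulation with Nigericin 3.75 μM or MSU 200 μg/mL. Supernatant IL-1β quantified by HTRF; IC50 at 50% inhibition.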

[2] = system: NLRP3 inflammasome pathway; assay: NLRP3 inflammasome pathway activation assay, Nigericin stimulation, IL-1β HTRF; type: cell-based; settings: Homo sapiens, 3 h, Table 7; PMA-differentiated, LPS-primed cells; Nigericin 3.75 μM for 3 h; IL-1β release; read-out: IC50 Human monocyte-like cells Nigericin
Method: The following assays were used to determine the inhibitory activity of test compounds on the NLRP3 inflammasome pathway using common stimuli Nigericin (Invivogen) or monosodium urate crystals (MSU) (Invivogen).
Human monocyte-like cells were cultured in RPMI-1640 Glutamax medium supplemented with 10% heat inactivated FBS (Fetal Bovine Serum) and 50 U/mL penicillin-streptomycin (Life Technologies).
Human monocyte-like cells were seeded at 25000 per well in a 384-well plate and were differentiated overnight into macrophages with 10 ng/mL PMA (Phorbol Myristate Acetate). The following day, medium containing 10 ng/mL LPS (Lipopolysaccharide) was added. After 3 hours of LPS priming, concentrations of test compound in the range from […] were added 30 min prior to NLRP3 inflammasome pathway stimulation with Nigericin 3.75 μM or MSU 200 μg/mL for 3 h.
For IL-1p quantification, supernatants were analyzed using HTRF kit according to the manufacturer's instructions (Cisbio 62HIL1BPEH). Briefly, in a 384-well ProxiPlate™ microplate, 8 μl of sample was mixed, with 5 μl of Anti-IL1β Cryptate antibody (40×) and Anti-IL1β XL antibody (40×). Then, incubated overnight at RT. Reading was done using an EnVision Reader (PerkinElmer).
IC50 (concentration corresponding to 50% inhibition) were determined using GraphPad Prism 9.

IL-1β = assay: Inhibition of IL-1β in an LPS/ATP induced acute peritonitis mouse model; type: in vivo; settings: BALB/c mice; dosed 30 min before LPS i.p.; ATP i.p. 120 min after LPS; PW 30 min post ATP; vs LPS-ATP, 0 mg/kg
Method: 1.2.1 The efficacy of Example compounds 53 and 18 in an LPS/ATP-induced acute peritonitis was evaluated: LPS (Lipopolysaccharide) and ATP (Adenosine triphosphate) were administered to BALB/c mice by intraperitoneal (i.p.) injection to elicit an acute inflammatory response in the peritoneal cavity.
Mice (BALB/c mice, aged 6-8 w, females) were challenged with 50 μg/kg LPS by intraperitoneal (i.p.) injection. 120 min after LPS administration, ATP was delivered by i.p. injection at 50 mM in 200 μL. […]
Cytometric Bead Array (CBA) Assay for IL-1β detection was performed on the peritoneal wash supernatant as follows: supernatants or cytokine standards were incubated with the capture beads mixture for 1 hour at room temperature. […] After washing in Wash Buffer containing 1×PBS, blocking protein, and detergent, the beads were re-suspended and analyzed by flow cytometry.
The cytokine analysis raw data were analyzed using FACP. […] Data were expressed as the Mean±SD. […]

[3] = Table 7, PMA-differentiated, LPS-primed cells

`COc1ccc2c(n1)nc(-c1ccc(C(F)(F)F)cc1O)n2C` [Example 24, 2-(5-methoxy-1-methyl-1H-imidazo[4,5-b]pyridin-2-yl)-5-(trifluoromethyl)phenol] was tested, and the IC50 [1, 3] was 0.1 to 1 µM and the IC50 [2] was < 0.1 µM.

`COc1ccc2c(n1)nc(-c1c(C)cc(Cl)cc1O)n2C` [Example 29, 5-chloro-2-(5-methoxy-1-methyl-1H-imidazo[4,5-b]pyridin-2-yl)-3-methylphenol] was tested, and the IC50 [1, 3] was < 0.1 µM and the IC50 [2] was 0.1 to 1 µM.

In the case of `Cc1cc(C(F)(F)F)cc(O)c1-c1nc2nc(O[C@@H]3CCCN(C)C3)ccc2n1C` [Example 26, (R)-3-methyl-2-(1-methyl-5-((1-methylpiperidin-3-yl)oxy)-1H-imidazo[4,5-b]pyridin-2-yl)-5-(trifluoromethyl)phenol], the IC50 [1, 3] is reported as < 0.1 µM and the IC50 [2] is reported as 0.1 to 1 µM.

For `Cc1cc(C(F)(F)F)cc(O)c1-c1nc2nc(OC3CCN(C)C3)cnc2n1C` (single isomer, unassigned) [Example 53, 3-methyl-2-(1-methyl-5-((1-methylpyrrolidin-3-yl)oxy)-1H-imidazo[4,5-b]pyrazin-2-yl)-5-(trifluoromethyl)phenol], the IC50 [1, 3] was < 0.1 µM and the “IL-1β release in peritoneal wash (PW)” value (IL-1β) was “significantly reduced IL-1β release in PW in a dose response manner”.

With `CCn1c(-c2c(C)cc(C(F)(F)F)cc2O)nc2nc(OCCO)ccc21` [Example 32, 2-(1-ethyl-5-(2-hydroxyethoxy)-1H-imidazo[4,5-b]pyridin-2-yl)-3-methyl-5-(trifluoromethyl)phenol] the IC50 [1, 3] was < 0.1 µM and the IC50 [2] was 0.1 to 1 µM.

With `CN1CCC[C@@H](Oc2ccc3c(n2)nc(-c2ccc(C(F)(F)F)cc2O)n3C)C1` [Example 25, (R)-2-(1-methyl-5-((1-methylpiperidin-3-yl)oxy)-1H-imidazo[4,5-b]pyridin-2-yl)-5-(trifluoromethyl)phenol] the IC50 [1, 3] was < 0.1 µM and the IC50 [2] was 0.1 to 1 µM.

`Cc1cc(C(F)(F)F)cc(O)c1-c1nc2nc(NC3CCN(C)C3)ccc2n1C` (racemic) [Example 18, 3-methyl-2-(1-methyl-5-((1-methylpyrrolidin-3-yl)amino)-1H-imidazo[4,5-b]pyridin-2-yl)-5-(trifluoromethyl)phenol] was tested, and the “IL-1β release in peritoneal wash (PW)” value (IL-1β) was “significantly reduced IL-1p release in PW in a dose response manner”.

In the case of `CCn1c(-c2ccc(C(F)(F)F)cc2O)nc2nc(NC3CCN(C)C3)ccc21` (single isomer, unassigned) [Example 9, 2-(1-ethyl-5-((1-methylpyrrolidin-3-yl)amino)-1H-imidazo[4,5-b]pyridin-2-yl)-5-(trifluoromethyl)phenol], the IC50 [1, 3] is reported as < 0.1 µM and the IC50 [2] is reported as 0.1 to 1 µM.

For `COc1ccc2c(n1)nc(-c1c(C)cc(C(F)(F)F)cc1O)n2C` [Example 23], the IC50 [1, 3] was < 0.1 µM and the IC50 [2] was 0.1 to 1 µM.

With `Cc1cc(C(F)(F)F)cc(O)c1-c1nc2nc(N[C@H]3CCCC[C@@H]3O)ccc2n1C` (single isomer, unassigned) [Example 20, 2-(5-((2-hydroxycyclohexyl)amino)-1-methyl-1H-imidazo[4,5-b]pyridin-2-yl)-3-methyl-5-(trifluoromethyl)phenol] the IC50 [1, 3] was 0.1 to 1 µM and the IC50 [2] was > 1 µM.

For `CN1CC[C@@H](Oc2ccc3c(n2)nc(-c2ccc(C(F)(F)F)cc2O)n3C)C1` [Example 27, (R)-2-(1-methyl-5-((1-methylpyrrolidin-3-yl)oxy)-1H-imidazo[4,5-b]pyridin-2-yl)-5-(trifluoromethyl)phenol], the IC50 [1, 3] was < 0.1 µM.

`Cc1cc(C(F)(F)F)cc(O)c1-c1nc2nc(N[C@@H]3CCC[C@@H](O)C3)ccc2n1C` (single isomer, unassigned) [Example 21, 2-(5-((3-hydroxycyclohexyl)amino)-1-methyl-1H-imidazo[4,5-b]pyridin-2-yl)-3-methyl-5-(trifluoromethyl)phenol] gave an IC50 [1, 3] of 0.1 to 1 µM.

`CCn1c(-c2ccc(C(F)(F)F)cc2O)nc2nc(NC)ccc21` [Example 14, 2-(1-ethyl-5-(methylamino)-1H-imidazo[4,5-b]pyridin-2-yl)-5-(trifluoromethyl)phenol] gave an IC50 [1, 3] of 0.1 to 1 µM.

Work on `CN1CCC[C@@H](Nc2ccc3c(n2)nc(-c2ccc(C(F)(F)F)cc2O)n3C)C1` [Example 2] yielded an IC50 [1, 3] of 0.1 to 1 µM and an IC50 ([1]; Table 8 (formula II′/II vs formula III)) of 0.1 to 0.5 µM.
